Source: article PMC10252614 (International Journal of Molecular Sciences, 2023)

Experiments:
human AChE (hAChE) = target: T1, human AChE (hAChE) (Homo sapiens, UniProt P22303); test: hAChE inhibition, modified Ellman's method; assay type: biochemical; settings: read-out: % of AChE inhibition
T1 construct: made in house
Experimental: (§1) N-Methylpropargylamine-quinazolines were tested for their inhibitory potency against human AChE (hAChE) and human BChE (hBChE) enzymes using the modified spectrophotometric method of Ellman et al..
(§2) The human recombinant BChE and AChE were prepared at the Department of Toxicology and Military Pharmacy (Faculty of Military Health Sciences, Hradec Kralove, Czech Republic). 5,5′-dithiobis(2-nitrobenzoic acid) (Ellman’s reagent, DTNB), phosphate buffer (PB, pH 7.4), acetylthiocholine (ATC) and butyrylthiocholine (BTC), were purchased from Sigma-Aldrich, Prague, Czech Republic. For measuring purposes, polystyrene Nunc 96-well microplates with a flat-bottom shape (ThermoFisher Scientific, Waltham, MA, USA) were utilized. All the assays were carried out in 0.1 M KH2PO4/K2HPO4 buffer, pH 7.4. Enzyme solutions were prepared at 2.0 units/mL in 2 mL aliquots. The assay medium consisted of a 0.1 M phosphate buffer (pH 7.4), 0.01 M DTNB, the enzyme, and 0.01 M substrate (ATC/BTC iodide solution). Concentration 1 µM was tested and the % of inhibition was calculated. Tested compounds were pre-incubated for 5 min. The reaction was started by immediate addition of 20 μL of the substrate. […] Each concentration was assayed in triplicate. Software GraphPad Prism 5 (San Diego, CA, USA) was used for the statistical data evaluation.

human BChE (hBChE) = target: T2, human BChE (hBChE) (Homo sapiens, UniProt P06276); test: hBChE inhibition, modified Ellman's method; assay type: biochemical; settings: 10^-6 M
T2 construct: made in house
T2 sequence (P06276 29-602): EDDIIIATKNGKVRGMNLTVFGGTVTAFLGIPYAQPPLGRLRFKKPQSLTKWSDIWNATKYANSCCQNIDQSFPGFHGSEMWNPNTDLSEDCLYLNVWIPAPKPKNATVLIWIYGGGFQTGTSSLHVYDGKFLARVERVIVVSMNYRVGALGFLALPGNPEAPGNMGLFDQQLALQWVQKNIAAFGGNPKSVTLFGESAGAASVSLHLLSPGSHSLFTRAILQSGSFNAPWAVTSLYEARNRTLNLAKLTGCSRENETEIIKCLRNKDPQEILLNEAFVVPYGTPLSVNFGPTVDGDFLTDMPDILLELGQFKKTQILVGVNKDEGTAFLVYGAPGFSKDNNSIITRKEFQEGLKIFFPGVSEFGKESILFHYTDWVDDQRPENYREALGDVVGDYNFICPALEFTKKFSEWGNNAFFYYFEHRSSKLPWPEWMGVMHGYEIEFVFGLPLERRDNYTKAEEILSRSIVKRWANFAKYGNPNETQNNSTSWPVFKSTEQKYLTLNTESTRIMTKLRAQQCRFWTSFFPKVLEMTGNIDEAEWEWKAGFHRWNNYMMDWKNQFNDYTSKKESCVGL
Experimental: as §1, §2

hMAO-B = target: T3, hMAO-B (Homo sapiens, UniProt P27338); test: in vitro inhibition of hMAO-B, kynuramine fluorescence assay; assay type: biochemical
T3 construct: purchased Merck (Prague, Czech Republic)
T3 sequence (P27338 1-520): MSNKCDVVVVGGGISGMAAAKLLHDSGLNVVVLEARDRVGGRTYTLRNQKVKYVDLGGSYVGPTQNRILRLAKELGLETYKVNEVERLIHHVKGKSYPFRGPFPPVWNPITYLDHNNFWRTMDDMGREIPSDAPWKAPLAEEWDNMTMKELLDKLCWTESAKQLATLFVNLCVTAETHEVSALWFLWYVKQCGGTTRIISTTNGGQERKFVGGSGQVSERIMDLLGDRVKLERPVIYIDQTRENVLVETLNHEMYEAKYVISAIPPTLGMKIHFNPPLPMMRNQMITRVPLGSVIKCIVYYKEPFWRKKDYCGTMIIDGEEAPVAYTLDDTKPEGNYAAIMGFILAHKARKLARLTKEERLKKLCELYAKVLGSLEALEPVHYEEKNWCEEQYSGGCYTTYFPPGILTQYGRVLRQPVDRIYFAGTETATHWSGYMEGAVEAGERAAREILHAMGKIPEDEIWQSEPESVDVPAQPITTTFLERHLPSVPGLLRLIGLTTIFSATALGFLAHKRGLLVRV
Experimental: The hMAO-A and hMAO-B enzymes were purchased from Merck (Prague, Czech Republic). […] The mixture was pre-incubated at 37 °C for 15 min and subsequently substrate kynuramine was added to the final concentration of 100 µM. The final volume of reaction mixture was 0.1 mL. The whole reaction mixture was incubated at 37 °C for 30 min. The reaction was stopped by the addition of 20 µL 4M NaOH.

GluN1/GluN2B receptor = target: T4, GluN1/GluN2B receptor (Homo sapiens, UniProt Q05586+Q13224); test: whole-cell patch-clamp on HEK293 cells expressing GluN1/GluN2B NMDAR; assay type: cell-based; settings: HEK293, 10 µM, −60 mV, ± SEM (n = 5–6), 100% = full inhibition; read-out: Relative inhibition (RI) of GluN1/GluN2B NMDAR
T4 construct: expressed in transfected cells; host or cells: HEK293
T4 sequence (Q13224 27-1484, other chains not shown): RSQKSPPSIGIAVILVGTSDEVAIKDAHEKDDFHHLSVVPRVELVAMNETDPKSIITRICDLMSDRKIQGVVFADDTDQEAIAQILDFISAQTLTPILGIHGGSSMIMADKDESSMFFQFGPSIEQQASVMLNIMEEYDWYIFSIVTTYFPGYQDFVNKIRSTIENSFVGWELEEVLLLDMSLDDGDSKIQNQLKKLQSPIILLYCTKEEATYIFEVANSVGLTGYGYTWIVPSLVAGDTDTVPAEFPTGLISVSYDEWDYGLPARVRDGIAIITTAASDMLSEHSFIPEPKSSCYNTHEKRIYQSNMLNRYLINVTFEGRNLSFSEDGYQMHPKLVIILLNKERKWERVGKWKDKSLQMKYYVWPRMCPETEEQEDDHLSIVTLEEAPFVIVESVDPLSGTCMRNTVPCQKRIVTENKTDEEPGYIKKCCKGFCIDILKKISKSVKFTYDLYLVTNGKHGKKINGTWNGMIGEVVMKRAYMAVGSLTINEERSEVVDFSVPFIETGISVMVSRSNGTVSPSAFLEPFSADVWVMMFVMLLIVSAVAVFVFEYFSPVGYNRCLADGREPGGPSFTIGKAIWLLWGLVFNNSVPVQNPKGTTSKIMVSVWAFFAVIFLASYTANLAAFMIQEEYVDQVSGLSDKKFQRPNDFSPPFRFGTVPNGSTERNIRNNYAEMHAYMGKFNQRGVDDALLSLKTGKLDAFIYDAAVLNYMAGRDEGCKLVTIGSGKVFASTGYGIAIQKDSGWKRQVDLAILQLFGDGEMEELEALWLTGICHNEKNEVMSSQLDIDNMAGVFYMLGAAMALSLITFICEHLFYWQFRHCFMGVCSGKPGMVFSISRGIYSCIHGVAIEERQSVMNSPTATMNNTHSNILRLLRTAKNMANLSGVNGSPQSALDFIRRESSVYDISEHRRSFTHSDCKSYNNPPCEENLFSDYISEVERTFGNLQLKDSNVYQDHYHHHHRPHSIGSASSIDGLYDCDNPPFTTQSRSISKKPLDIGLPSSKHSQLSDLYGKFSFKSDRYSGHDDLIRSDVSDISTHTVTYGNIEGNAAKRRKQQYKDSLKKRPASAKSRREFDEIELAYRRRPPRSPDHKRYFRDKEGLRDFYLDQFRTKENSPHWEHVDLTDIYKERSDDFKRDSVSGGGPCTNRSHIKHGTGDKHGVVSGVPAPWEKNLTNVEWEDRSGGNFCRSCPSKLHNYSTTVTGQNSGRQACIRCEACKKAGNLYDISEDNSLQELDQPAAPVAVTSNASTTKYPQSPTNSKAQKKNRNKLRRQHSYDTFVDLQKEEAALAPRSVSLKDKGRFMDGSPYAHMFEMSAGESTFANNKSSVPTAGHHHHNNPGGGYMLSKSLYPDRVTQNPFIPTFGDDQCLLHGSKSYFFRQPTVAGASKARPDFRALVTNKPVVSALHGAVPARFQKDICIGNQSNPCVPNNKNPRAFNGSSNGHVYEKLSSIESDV
Experimental: We tested the derivatives by the whole-cell patch-clamp method at a concentration of 10 μM under steady-state conditions in the presence of the saturating concentrations of NMDAR (co-)agonists (L-glutamate and glycine). […] Whole-cell patch-clamp recordings were performed using an Axopatch 200B amplifier (Molecular Devices, LLC., San Jose, CA, USA) at a holding membrane potential of −60 mV. HEK293 cells were co-transfected with DNA vectors encoding human versions of the GluN1-4a (GluN1) and GluN2B subunits and green fluorescent protein (GFP) in a 1:1:1 ratio using 0.9 μL PolyMag reagent (OZ Biosciences SAS, Marseille, France) in 50 μL Opti-MEM I [56, 57]. After 15 min on a magnetic plate, HEK293 cells were trypsinized and resuspended in Opti-MEM I medium containing 1% FBS, 2 mM MgCl2 and 3 mM kynurenic acid (to reduce cell death caused by activation of NMDARs). Electrophysiological measurements were performed 24–48 h after completion of transfection at room temperature. The extracellular recording solution (ECS) contained (in mM): 160 NaCl, 2.5 KCl, 10 HEPES, 10 D-glucose, 0.2 EDTA, and 0.7 CaCl2 (pH 7.3 with NaOH). […] A microprocessor-controlled rapid perfusion system with a time constant for solution exchange around the recorded cell of ~20 ms was used. Currents were low-pass filtered at 2 kHz using an eight-pole Bessel filter, digitized at 5 kHz, and recorded using the pCLAMP 10 program (Molecular Devices, LLC., San Jose, CA, USA). The co-agonist glycine (100 µM) was applied throughout the recording, and the agonist L-glutamate (1 mM) was used to elicit responses of GluN1/GluN2B receptors.

[1] = PAMPA prediction of BBB permeability; assay type: in vitro ADME
Experimental: The assay validation was performed using standard compounds whose CNS status is experimentally known from in vivo conditions.
PAMPA (the parallel artificial membrane-permeability assay) is a high-throughput screening tool applicable for prediction of the passive transport of potential drugs across the blood–brain barrier (BBB). In this study, it was used as a non-cell-based in vitro assay carried out in a coated 96-well membrane filter. The filter membrane of the donor plate was coated with PBL (Polar Brain Lipid, Avanti, USA) in dodecane (4 µL of 20 mg/mL PBL in dodecane) and the acceptor well was filled with 300 µL of PBS (pH 7.4; VA). The tested compounds were dissolved first in DMSO and subsequently diluted with PBS (pH 7.4) to final concentrations of 50–100 μM in the donor wells. […] About 300 µL of the donor solution was added to the donor wells (VD) and the donor filter plate was carefully put on the acceptor plate so that the coated membrane was “in touch” with both the donor solution and acceptor buffer. In principle, the test compound diffused from the donor well through the lipid membrane (Area = 0.28 cm^2) to the acceptor well. The concentration of the drug in both the donor and acceptor wells were assessed after 3, 4, 5, and 6 h of incubation in quadruplicate using the UV plate reader Spark (Tecan Group Ltd., Männedorf, Switzerland) at the maximum absorption wavelength of each compound. In addition, the solution of the theoretical compound concentration, simulating the equilibrium state established if the membrane were ideally permeable, was prepared and assessed as well.

[2] = test system: differentiated SH-SY5Y cells; test: MTT viability of differentiated SH-SY5Y; assay type: cell-based, human; settings: concentration equal to IC50 from undifferentiated model, 24 h
Experimental: Then, the differentiated SH-SY5Y cells were treated with concentrations corresponding to the IC50 values obtained from the cytotoxicity measurement using undifferentiated SH-SY5Y cells. Cells were exposed to a tested compound for 24 h. Then, the medium was replaced by a medium containing 10 μM of MTT and cells were allowed to produce formazan for another, approximately 3 h under surveillance. Thereafter, the medium was aspirated and purple crystals of MTT formazan were dissolved in 100 μL DMSO under shaking. Cell viability was assessed spectrophotometrically by the amount of formazan produced. Absorbance was measured at 570 nm with 650 nm reference wavelength on Spark (Tecan Group Ltd., Männedorf, Switzerland). The IC50 value was then calculated from the control-subtracted triplicates using non-linear regression (four parameters) of GraphPad Prism 9 software. Final IC50 and SEM values were obtained as a mean of three.

SH-SY5Y cells = test: dehydrogenase activity, WST-1 test; assay type: cell-based, human; settings: 100 µM, mean ± SD
Experimental: Next, we tested the effects of the compounds on intracellular dehydrogenase activity and glutathione levels. […] To evaluate the effects of the compounds on cells, we measured total intracellular dehydrogenase activity as a marker of cellular viability and glutathione levels for evaluation of oxidative stress (Table 6).
Dehydrogenase activity was evaluated by WST-1 test (Roche, Munich, Germany). The WST-1 test measures the activity of intra- and extra-mitochondrial dehydrogenases. […] The change of absorbance was measured by spectrophotometer at the wavelength of 440 nm using SPARK microplate reader (Tecan, Austria) while incubated at 37 °C. The dehydrogenase activity was expressed as the percentage of total cellular dehydrogenase activity relative to that in the control cells (control = 100%).

in vitro = settings: human, undifferentiated SH-SY5Y cells

T1 sequence (P22303 32-614): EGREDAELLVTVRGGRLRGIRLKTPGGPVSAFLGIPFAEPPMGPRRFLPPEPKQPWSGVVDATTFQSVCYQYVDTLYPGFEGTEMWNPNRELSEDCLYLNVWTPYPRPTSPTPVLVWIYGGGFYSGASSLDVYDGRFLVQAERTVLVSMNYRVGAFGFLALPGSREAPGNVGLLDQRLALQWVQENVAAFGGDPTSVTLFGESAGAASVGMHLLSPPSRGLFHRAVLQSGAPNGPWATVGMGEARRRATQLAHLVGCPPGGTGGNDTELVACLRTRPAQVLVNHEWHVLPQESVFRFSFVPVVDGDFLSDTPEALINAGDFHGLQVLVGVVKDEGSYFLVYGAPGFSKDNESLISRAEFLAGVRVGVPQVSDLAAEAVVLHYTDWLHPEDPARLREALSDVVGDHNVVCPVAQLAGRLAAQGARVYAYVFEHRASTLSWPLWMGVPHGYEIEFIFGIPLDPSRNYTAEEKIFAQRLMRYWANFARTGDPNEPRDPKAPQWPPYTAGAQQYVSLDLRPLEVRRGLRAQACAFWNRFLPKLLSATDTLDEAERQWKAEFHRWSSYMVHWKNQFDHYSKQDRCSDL

## C#CCN(C)c1nc(NCCCC)c2ccc(Cl)cc2n1 [II-6e, N4-butyl-7-chloro-N2-methyl-N2-(prop-2-yn-1-yl)quinazoline-2,4-diamine]
Human AChE (hAChE)
  inhibition at 1 µM: 9%
Human BChE (hBChE)
  inhibition at 1 µM: 0%
hMAO-B
  IC50: 3.65 ± 0.14 µM
  selectivity profile hMAO-A vs hMAO-B (in words): hMAO-B selective inhibitors
GluN1/GluN2B receptor
  inhibition at 10 µM: 33.8 ± 2.56%
[1]
  BBB penetration by PAMPA (in words): did not penetrate the artificial barrier
[1]; PAMPA class
  CNS (+/−): CNS (−) (CNS (−) (low BBB permeation predicted): Pe (×10^−6 cm s^−1) < 2.0)
[1]; PAMPA, PBS pH 7.4, read-out: Pe ± SEM
  Papp: 0.9 ± 0.43 ×10⁻⁶ cm/s
[2]
  effect on viability of differentiated SH-SY5Y (in words): increased toxicity
SH-SY5Y cells; 6 h
  Dehydrogenase Activity (% of Control): 63 ± 9 % of Control
SH-SY5Y cells; 24 h
  Dehydrogenase Activity (% of Control): 48 ± 9 % of Control
In vitro
  IC50 at 24 h: 67.1 ± 3.81 µM
